Experimental data taken from patent US20240360148A1 (SUVALENT THERAPEUTICS, INC., priority 2021, published 2024).
Where two headings read alike, the source gives them in different places.

Experiments:
SAE1 = SAE1 (Homo sapiens (Human), UniProt Q9UBE0+Q9UBT2); test: SAE High Throughput Biochemical Assay (HTRF), 15 min preincubation; details: read-out: 15 min preincubation HTRF IC50 (μM) Ave, SAE1 12.5 nM, ATP 100 μM
Method in brief: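 HTRF detection of SUMO transfer from SUMO-GST to UBC9-His (40 nM each) by SAE1 at 12.5 nM used 100 μM ATP in pH 7.5 HEPES buffer with 10 mM MgCl2 and 0.1% BSA. Enzyme and compound were preincubated 15 min at RT and the reaction ran 45 min, with readings after 2 h and overnight.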

[1] = test system: sumoylation levels (SUMO 2/3 conjugates) in HCT-116 cells; test: HCT-116 4 Hour Cell Assay (Western, SUMO 2/3 conjugates); assay type: cell-based; details: 4 h treatment, Anti-Sumo 2-3 immunoblot, read-out: HCT-116 Western 4 h IC50 (μM) Ave
Method in brief: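 IC50 derived from fluorescent immunoblot quantification of SUMO 2/3 conjugate bands, normalized to total protein, after non-reducing SDS-PAGE. Lysis used RIPA plus NEM; exposure was 4 h across 11 concentrations, three-fold serial dilution starting at 25 μM.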

Sequence of SAE1 (Q9UBE0 whole entry): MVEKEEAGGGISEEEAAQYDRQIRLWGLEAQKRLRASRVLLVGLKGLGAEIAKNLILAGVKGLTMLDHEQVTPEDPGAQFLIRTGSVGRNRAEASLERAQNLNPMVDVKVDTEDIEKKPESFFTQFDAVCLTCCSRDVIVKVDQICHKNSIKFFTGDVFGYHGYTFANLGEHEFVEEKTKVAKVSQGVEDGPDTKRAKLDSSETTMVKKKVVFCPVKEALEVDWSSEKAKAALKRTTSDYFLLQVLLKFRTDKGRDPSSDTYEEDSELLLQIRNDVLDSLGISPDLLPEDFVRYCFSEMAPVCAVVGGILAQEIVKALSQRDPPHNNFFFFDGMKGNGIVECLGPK
Sequence of SAE1 (Q9UBT2 whole entry): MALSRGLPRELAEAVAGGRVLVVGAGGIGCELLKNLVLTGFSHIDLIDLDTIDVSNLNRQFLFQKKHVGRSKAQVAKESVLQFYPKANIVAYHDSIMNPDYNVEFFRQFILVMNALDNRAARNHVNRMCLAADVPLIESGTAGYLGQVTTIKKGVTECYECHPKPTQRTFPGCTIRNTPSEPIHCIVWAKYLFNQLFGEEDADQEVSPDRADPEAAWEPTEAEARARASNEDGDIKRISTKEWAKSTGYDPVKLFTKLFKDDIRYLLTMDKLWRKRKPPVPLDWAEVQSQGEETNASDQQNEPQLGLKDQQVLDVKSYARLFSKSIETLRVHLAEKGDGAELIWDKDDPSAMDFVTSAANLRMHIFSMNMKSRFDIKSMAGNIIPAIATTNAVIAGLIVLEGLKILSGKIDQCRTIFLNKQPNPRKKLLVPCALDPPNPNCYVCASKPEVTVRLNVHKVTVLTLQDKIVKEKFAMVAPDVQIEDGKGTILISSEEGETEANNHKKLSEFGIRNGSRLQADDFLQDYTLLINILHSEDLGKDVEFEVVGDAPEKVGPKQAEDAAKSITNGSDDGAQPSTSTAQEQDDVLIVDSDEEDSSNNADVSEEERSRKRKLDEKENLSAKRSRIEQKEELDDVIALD

| Compound | IC50 ([1]; Homo sapiens, HCT-116, 4 h) [µM] | IC50 (SAE1) [µM] | IC50 [1] [µM] |
| --- | --- | --- | --- |
| CCn1cc(-c2ccccc2[C@@H]2CN(C(=O)/C=C/[C@@H]3CC4(CC4)CN3)Cc3sc(C#N)cc32)c(C(F)(F)F)n1 [Example 116, (S)-6-((E)-3-((S)—S-Azaspiro(2.4]heptan-6-yl)acryloyl)-4-(2-(1-ethyl-3-(trifluoromethyl)-1H pyrazol-4-yl)phenyl)-4,5,6,7-tetrahydrothieno[2,3-c]pyridine-2-carbonitrile] | 0.202 | 1.49 | – |
| CN(C)C/C=C/C(=O)N1Cc2sc(C#N)cc2[C@H](c2ccccc2-c2cn(-c3c(F)cncc3Cl)nc2C(F)(F)F)C1 [Example 156, (S,E)-4-(2-(1-(3-Chloro-5-fluoropyridin-4-yl)-3-(trifluoromethyl)-1H pyrazol-4-yl)phenyl)-6-(4-(dimethylamino)but-2-enoyl)-4,5,6,7-tetrahydrothieno[2,3-c]pyridine-2-carbonitrile] | 0.349 | 2.91 | – |
| CCn1cc(-c2ccccc2[C@@H]2CN(C(=O)C#CC3(N)CC3)Cc3sc(C#N)cc32)c(C(F)(F)F)n1 [Example 136, (S)-6-(3-(1-Aminocyclopropyl)propioloyl)-4-(2-(1-ethyl-3-(trifluoromethyl)-1 H-pyrazol-4-yl)phenyl)-4,5,6,7-tetrahydrothieno[2,3-c]pyridine-2-carbonitrile] | 2.53 | 4.13 | – |
| CCn1cc(-c2ccccc2[C@@H]2CN(C(=O)C#C[C@]3(C)CCCN3)Cc3sc(C#N)cc32)c(C(F)(F)F)n1 [Example 140, (S)-4-(2-(1-Ethyl-3-(trifluoromethyl)-1 H-pyrazol-4-yl)phenyl)-6-(3-((S)-2-methylpyrrolidin-2-yl)propioloyl)-4,5,6,7-tetrahydrothieno[2,3-c]pyridine-2-carbonitrile] | 2.36 | 0.12 | – |
| CN(C)C/C=C/C(=O)N1Cc2sc(C#N)cc2[C@H](c2ccccc2-c2cn(C)nc2C(F)(F)F)C1 [Example 3, (S, E)-6-(4-(Dimethylamino)but-2-enoyl)-4-(2-(1-methyl-3-(trifluoromethyl)-1 H-pyrazol-4-yl)phenyl)-4,5,6,7-tetrahydrothieno[2,3-c]pyridine-2-carbonitrile] | 0.985 | 7.87 | – |
| C=CC(=O)N1Cc2sc(C#N)cc2C(c2ccc(NC(C)=O)cc2-c2cn(CC)nc2C(F)(F)F)C1 (stereo not drawn) [Compound 230] | 5.39 | 1.1 | – |
| CCn1cc(-c2ccccc2[C@@H]2CN(C(=O)/C=C/[C@H]3CC(C)(C)CN3)Cc3sc(C#N)cc32)c(C(F)(F)F)n1 [Example 82, (S)-6-((E)-3-((R)-4,4-Dimethylpyrrolidin-2-yl)acryloyl)-4-(2-(1-ethyl-3-(trifluoromethyl)-1H pyrazol-4-yl)phenyl)-4,5,6,7-tetrahydrothieno[2,3-c]pyridine-2-carbonitrile] | 0.357 | 1.08 | – |
| CCn1cc(-c2ccccc2[C@@H]2CN(C(=O)/C=C/[C@@H]3C[C@H](C)CN3)Cc3sc(C#N)cc32)c(C(F)(F)F)n1 [Example 80, (S)-4-(2-(1-Ethyl-3-(trifluoromethyl)-1H pyrazol-4-yl)phenyl)-6-((E)-3-((2S,4S)-4-methylpyrrolidin-2-yl)acryloyl)-4,5,6,7-tetrahydrothieno[2,3-c]pyridine-2-carbonitrile] | 0.212 | 1.24 | – |
| CCn1cc(-c2ccccc2[C@@H]2CN(C(=O)/C=C/[C@@H]3CCCN3)Cc3sc(C#N)cc32)c(C(F)(F)F)n1 [Example 112] | 0.209 | 0.76 | – |
| CCn1cc(-c2ccccc2[C@@H]2CN(C(=O)C#CC3(N)CCCC3)Cc3sc(C#N)cc32)c(C(F)(F)F)n1 [Example 138, (S)-6-(3-(1-Aminocyclopentyl)propioloyl)-4-(2-(1-ethyl-3-(trifluoromethyl)-1 H-pyrazol-4-yl)phenyl)-4,5,6,7-tetrahydrothieno[2,3-c]pyridine-2-carbonitrile] | 2.69 | 0.5 | – |
| CCn1cc(-c2ccccc2[C@@H]2CN(C(=O)C#CCN)Cc3sc(C#N)cc32)c(C(F)(F)F)n1 [Example 135, (S)-6-(4-Aminobut-2-ynoyl)-4-(2-(1-ethyl-3-(trifluoromethyl)-1H pyrazol-4-yl)phenyl)-4,5,6,7-tetrahydrothieno[2,3-c]pyridine-2-carbonitrile] | 1.2 | 0.51 | – |
| CCn1cc(-c2c(F)cccc2[C@@H]2CN(C(=O)/C=C/[C@@H]3C[C@H]4C[C@H]4N3)Cc3sc(C#N)cc32)c(C(F)(F)F)n1 [Example 92, (S)-6-((E)-3-((IR,3S,5R)-2-azabicyclo[3.1.0]hexan-3-yl)acryloyl)-4-(2-(1-ethyl-3-(trifluoromethyl)-1H pyrazol-4-yl)-3-fluorophenyl)-4,5,6,7-tetrahydrothieno[2,3-c]pyridine-2-carbonitrile] | – | 0.4 | 0.451 |

The next lines start with results.

| IC50 ([1]; Homo sapiens, HCT-116, 4 h) [µM] | Compound | IC50 (SAE1) [µM] | IC50 [1] [µM] |
| --- | --- | --- | --- |
| 0.383 | CCn1cc(-c2c(F)cccc2[C@@H]2CN(C(=O)/C=C/[C@@H]3C[C@@H](OC)CN3)Cc3sc(C#N)cc32)c(C(F)(F)F)n1 [Example 120, (S)-4-(2-(1-Ethyl-3-(trifluoromethyl)-1H pyrazol-4-yl)-3-fluorophenyl)-6-((E)-3-((2S,4R)-4-methoxypyrrolidin-2-yl)acryloyl)-4,5,6,7-tetrahydrothieno[2,3-c]pyridine-2-carbonitrile] | 0.31 | – |
| 0.106 | CCn1cc(-c2c(F)cccc2[C@@H]2CN(C(=O)/C=C/CN)Cc3sc(C#N)c(C)c32)c(C(F)(F)F)n1 [Compound 224] | 0.172 | – |
| 0.356 | C=CC(=O)N1Cc2sc(C#N)cc2C(c2cccc(F)c2-c2cn(CC)nc2C(F)(F)F)C1 (stereo not drawn) [Compound 236] | 0.24 | – |
| 0.321 | CCn1cc(-c2c(F)cc(F)cc2C2CN(C(=O)/C=C/CN(C)C)Cc3sc(C#N)cc32)c(C(F)(F)F)n1 (stereo not drawn) [Example 183, (E)-6-(4-(Dimethylamino)but-2-enoyl)-4-(2-(1-ethyl-3-(trifluoromethyl)-1 H-pyrazol-4-yl)-3,5-difluorophenyl)-4,5,6,7-tetrahydrothieno[2,3-c]pyridine-2-carbonitrile] | 2.16 | – |
| 0.767 | CCn1cc(-c2cc(O)ccc2C2CN(C(=O)/C=C/CN(C)C)Cc3sc(C#N)cc32)c(C(F)(F)F)n1 (stereo not drawn) [Example 203, (E)-6-(4-(Dimethylamino)but-2-enoyl)-4-(2-(1-ethyl-3-(trifluoromethyl)-1 H-pyrazol-4-yl)-4-hydroxyphenyl)-4,5,6,7-tetrahydrothieno[2,3-c]pyridine-2-carbonitrile] | 4.75 | – |
| 0.324 | CCn1cc(-c2ccccc2[C@@H]2CN(C(=O)/C=C/[C@@H]3CCC(C)(C)N3)Cc3sc(C#N)cc32)c(C(F)(F)F)n1 [Example 79, (S)-6-((E)-3-((S)-5,5-Dimethylpyrrolidin-2-yl)acryloyl)-4-(2-(1-ethyl-3-(trifluoromethyl)-1H pyrazol-4-yl)phenyl)-4,5,6,7-tetrahydrothieno[2,3-c]pyridine-2-carbonitrile] | 1.77 | – |
| 0.2 | CCn1cc(-c2ccccc2[C@@H]2CN(C(=O)/C=C/CN(C)C)Cc3sc(C#N)c(Cl)c32)c(C(F)(F)F)n1 [Compound 247] | 1.66 | – |
| 1.15 | CCn1cc(-c2ccc(F)cc2C2CN(C(=O)/C=C/CN(C)C)Cc3sc(C#N)cc32)c(C(F)(F)F)n1 (stereo not drawn) [Example 180, (E)-6-(4-(Dimethylamino)but-2-enoyl)-4-(2-(1-ethyl-3-(trifluoromethyl)-1 H-pyrazol-4-yl)-5-fluorophenyl)-4,5,6,7-tetrahydrothieno[2,3-c]pyridine-2-carbonitrile] | 5.29 | – |
| 0.918 | CCn1cc(-c2ccccc2[C@@H]2CN(C(=O)/C=C/CN3CCCC3C)Cc3sc(C#N)cc32)c(C(F)(F)F)n1 (stereo partly drawn) [Example 31, (4S)-4-(2-(1-ethyl-3-(trifluoromethyl)-1 H-pyrazol-4-yl)phenyl)-6-((E)-4-(2-methylpyrrolidin-1-yl)but-2-enoyl)-4,5,6,7-tetrahydrothieno[2,3-c]pyridine-2-carbonitrile] | 10.2 | – |
| 1.26 | CCn1cc(-c2c(C3CN(C(=O)/C=C/CN(C)C)Cc4sc(C#N)cc43)csc2C)c(C(F)(F)F)n1 (stereo not drawn) [Example 199, (E)-6-(4-(Dimethylamino)but-2-enoyl)-4-(4-(1-ethyl-3-(trifluoromethyl)-1 H-pyrazol-4-yl)-5-methylthiophen-3-yl)-4,5,6,7-tetrahydrothieno[2,3-c]pyridine-2-carbonitrile] | 2.87 | – |
| 0.0658 | Cn1cc(-c2c(F)cccc2[C@@H]2CN(C(=O)/C=C/[C@@H]3CCCN3)Cc3sc(C#N)cc32)c(C(F)(F)F)n1 [Example 128, (S)-4-(3-Fluoro-2-(1-methyl-3-(trifluoromethyl)-1H-pyrazol-4-yl)phenyl)-6-((E)-3-((S)pyrrolidin-2-yl)acryloyl)-4,5,6,7-tetrahydrothieno[2,3-c]pyridine-2-carbonitrile] | 0.75 | – |
| 0.225 | CCn1cc(-c2c(F)cccc2[C@@H]2CN(C(=O)/C=C/CNC(C)(C)C)Cc3sc(C#N)cc32)c(C(F)(F)F)n1 [Example 127, (S, E)-6-(4-(tert-butylamino)but-2-enoyl)-4-(2-(1-ethyl-3-(trifluoromethyl)-1 H pyrazol-4-yl)-3-fluorophenyl)-4,5,6,7-tetrahydrothieno[2,3-c]pyridine-2-carbonitrile] | 1.07 | – |
